The METLIN SMRT retention time set (Domingo-Almenara et al. 2019)

Assay: gradient 5% acetonitrile 3 min, to 50% in 2 min, to 85% in 15 min, held 3 min, 100 µL/min
Conditions: column: Zorbax Extend-C18 2.1 x 50 mm; eluents: water / acetonitrile, 0.1% formic acid
Summary of the method: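 Standards, all pure, were combined into mixtures of ~100 molecules and run at 100 μL/min on a Zorbax Extend-C18 column (2.1 × 50 mm, 1.8 μm) with water and acetonitrile, each containing 0.1% formic acid. A coupled quadrupole time-of-flight mass spectrometer operated in positive and negative ionization mode. Retention time values come from computationally picked adduct peaks, each inspected manually.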

Q: With COCCOC1CCC12CCN(C(=O)c1occc1C)CC2 (centres undefined) as the compound, how does the RP-LC retention time read?
A: 779 s

Q: With COc1cc(-c2nc3cccc(C)n3c2Nc2ccc(C)cc2)ccc1O as the compound, how does the RP-LC retention time read?
A: 989 s

Q: Which RP-LC retention time does the source give for CCOc1ccccc1NC(=O)C1CCCN(c2cnc3nccnc3c2)C1 (centres undefined) here?
A: 664 s

Q: Which RP-LC retention time does the source give for O=C(NCc1cccnc1)c1nnc(-c2ccc(S(=O)(=O)N3CCOCC3)cc2)o1 here?
A: 596 s

Q: With CNC1(C)[C@H]2CC[C@H](C2)C1(C)C (some centres undefined) as the compound, how does the RP-LC retention time read?
A: 606 s

Q: Which RP-LC retention time does the source give for CCn1cc(-c2nc(CC(=O)Nc3ccc(C)cc3F)cs2)c2cccnc21 here?
A: 865 s

Q: With Cc1cc(C(F)(F)F)nn1CC(=O)NCCn1c(C)cnc1C1CCC1 as the compound, how does the RP-LC retention time read?
A: 634 s

Q: With CCN1C(=O)c2cccnc2Sc2cc(C(=O)NCc3ccc(F)cc3)ccc21 as the compound, how does the RP-LC retention time read?
A: 805 s

Q: For COc1ccc(NC(=O)C2CCN(c3cc(N4CCSCC4)ncn3)CC2)cc1Cl, which RP-LC retention time is on record?
A: 706 s

Q: For CCc1nnc(-c2ccc3ccn(CC(=O)Nc4ccc(OC)cc4)c3c2)o1, which RP-LC retention time is on record?
A: 763 s

Q: Which RP-LC retention time does the source give for Cc1noc(C2CN(C(=O)Nc3ccc(Cl)cc3C)CC23CCOCC3)n1 (centres undefined) here?
A: 792 s

Q: For CCC1Oc2ccc(S(=O)(=O)N3CCC(C(=O)Nc4cccc(C)c4C)CC3)cc2NC1=O (centres undefined), which RP-LC retention time is on record?
A: 837 s

Q: Which RP-LC retention time does the source give for COC(=O)N1CCc2ccc(F)cc2C1C(=O)NCc1cccnc1 (centres undefined) here?
A: 554 s

Q: For O=C(CN1C(=O)CCCc2cc(S(=O)(=O)N3CCCC3)ccc21)NCc1ccc(F)cc1, which RP-LC retention time is on record?
A: 792 s

Q: With Cc1ccccc1CN1C[C@@H]2C(=O)N(CCc3ccccc3)C(=O)[C@@H]2C1 as the compound, how does the RP-LC retention time read?
A: 829 s

Q: For O=C(NCc1cccnc1)C1c2ccccc2C(=O)N1Cc1ccccc1 (centres undefined), which RP-LC retention time is on record?
A: 604 s

Q: Which RP-LC retention time does the source give for CCN1CCC2(CC1)OC(=O)C(C)=C2C(=O)Nc1cc(Cl)c(OC)cc1OC here?
A: 643 s

Q: Which RP-LC retention time does the source give for Cc1csc(-c2cc(S(=O)(=O)NC3CCCC3)cn2CC(=O)N2CCCCC2)n1 here?
A: 934 s

Q: For CCc1nnc2cc(N3CCN(C(=O)Nc4ccccc4Cl)CC3)cnn12, which RP-LC retention time is on record?
A: 548 s

Q: For Cc1ccn2c(Nc3ccc4c(c3)OCCO4)c(-c3ccc(Cl)cc3)nc2c1, which RP-LC retention time is on record?
A: 717 s

Q: Which RP-LC retention time does the source give for O=C(NC1CCCc2ccccc21)c1ccc(-n2nc(N3CCCC3)ccc2=O)cc1 (centres undefined) here?
A: 920 s

Q: With O=C1CCN(S(=O)(=O)c2ccccc2)CCCN(C(=O)Nc2ccc3c(c2)OCCO3)CCN1 as the compound, how does the RP-LC retention time read?
A: 701 s

Q: For O=C(C1CCN(S(=O)(=O)c2ccc(-c3noc(C4CC4)n3)cc2)CC1)N1CCOCC1, which RP-LC retention time is on record?
A: 805 s

Q: Which RP-LC retention time does the source give for COCC(=O)Nc1ccc(-c2nc(-c3ccc(C)cc3C)co2)cc1 here?
A: 1110 s

Q: Which RP-LC retention time does the source give for CCOC(=O)c1ccccc1NC(=O)Cn1cnc2c(sc3nc(-c4ccccc4)ccc32)c1=O here?
A: 1200 s

Q: For O=C(Cn1c(C(=O)c2cccc(F)c2)nc2ccccc21)NCC1CCCO1 (centres undefined), which RP-LC retention time is on record?
A: 805 s

Q: Which RP-LC retention time does the source give for O=C(Cn1ccn2nc(-c3ccc(F)cc3)c(CO)c2c1=O)Nc1cccc(Br)c1 here?
A: 894 s

Q: With O=C1CCCN1Cc1noc(-c2ccccc2)n1 as the compound, how does the RP-LC retention time read?
A: 731 s

Q: Which RP-LC retention time does the source give for CCOc1ccccc1NC(=O)C1CCN(S(C)(=O)=O)c2ccccc2O1 (centres undefined) here?
A: 994 s

Q: For CC(C)n1cnc2ccc(-c3noc(COc4ccccc4)n3)cc21, which RP-LC retention time is on record?
A: 770 s

Q: With O=c1c2sccc2n(Cc2nc(-c3ccc(C(F)(F)F)cc3)no2)c(=O)n1Cc1ccccc1 as the compound, how does the RP-LC retention time read?
A: 1200 s

Q: With CCc1ccc(S(=O)(=O)c2cnc(N3CCC(C(N)=O)(N4CCCCC4)CC3)nc2N)cc1 as the compound, how does the RP-LC retention time read?
A: 661 s

Q: Which RP-LC retention time does the source give for CC1CCN(c2nccnc2Oc2ccc(C(=O)Nc3ccc4c(c3)OCCO4)cc2)CC1 here?
A: 1080 s

Q: Which RP-LC retention time does the source give for CCc1nc(-c2csc(S(=O)(=O)N3CCC(C(=O)NCc4ccccc4C)CC3)c2)no1 here?
A: 818 s

Q: Which RP-LC retention time does the source give for Cc1ccc(C)c(C(=O)NCc2ccc3c(c2)ncn3C)c1 here?
A: 604 s

Q: Which RP-LC retention time does the source give for COCCC1CCN(C(=O)c2ccc3nc[nH]c3c2)CC1 here?
A: 572 s

Q: For Cc1nc2cc3c(cc2n1CC(=O)NCC1CCCO1)OCCO3 (centres undefined), which RP-LC retention time is on record?
A: 567 s

Q: For Cc1ccc(C)c(N2CCN(c3ccnc(SCC(=O)Nc4ccccc4)n3)CC2)c1, which RP-LC retention time is on record?
A: 860 s

Q: For CC1CCc2nn(CC(=O)Nc3ccc(F)cc3F)cc2C1 (centres undefined), which RP-LC retention time is on record?
A: 875 s

Q: Which RP-LC retention time does the source give for CCc1ccc(CNC(=O)C2(CC)CCCCC(=O)N2)cc1 (centres undefined) here?
A: 771 s

Q: For Cc1c(C(=O)C(=O)Nc2ccc(C(N)=O)cc2)c2ccccc2n1C, which RP-LC retention time is on record?
A: 686 s

Q: For CC(NC(=O)c1cc2sccc2n1C)c1ccc2c(c1)OCCO2 (centres undefined), which RP-LC retention time is on record?
A: 903 s

Q: For CCCN1CCN(c2cc(C(=O)O)c3cc(NS(=O)(=O)c4cccc(C)c4)ccc3n2)CC1, which RP-LC retention time is on record?
A: 607 s

Q: For CC(=O)N(C)CCc1noc(-c2ccc(C(=O)NCCC(C)C)cc2)n1, which RP-LC retention time is on record?
A: 733 s

Q: Which RP-LC retention time does the source give for Cc1c(-c2noc(-c3ccc(F)cc3)n2)nnn1Cc1ccccc1 here?
A: 1060 s

Q: Which RP-LC retention time does the source give for Cc1nc(C)c(-c2nnc(NC(=O)NCc3cccs3)o2)s1 here?
A: 672 s

Q: With COc1cccc(OCC(O)CN2CCN(c3ccc(F)cc3)CC2)c1 (centres undefined) as the compound, how does the RP-LC retention time read?
A: 687 s

Q: Which RP-LC retention time does the source give for O=C(NCc1cccc(Br)c1)C1CCCN(C(=O)Cc2cccc3ccccc23)C1 (centres undefined) here?
A: 978 s

Q: Which RP-LC retention time does the source give for CC(C)Oc1ccc(CNC(=O)C2CCCN(c3ccc(=O)n(-c4ccc(F)cc4)n3)C2)cc1 (centres undefined) here?
A: 900 s

Q: With Cc1ccc(N2C(=O)C3N=NN(Cc4nc(-c5ccc(OC(C)C)cc5)no4)C3C2=O)cc1Cl (centres undefined) as the compound, how does the RP-LC retention time read?
A: 1170 s

Q: Which RP-LC retention time does the source give for Cn1c(C2CCN(C(=O)Nc3cc(F)ccc3F)CC2)cc(=O)n2nccc12 here?
A: 695 s

Q: With Cc1ccccc1-c1nc(-c2ccc3c(c2)nc(C)c(=O)n3C)no1 as the compound, how does the RP-LC retention time read?
A: 1120 s

Q: With COc1ccc(CN2C=C(C(=O)OCc3noc(C)n3)C(C)=NS2(=O)=O)cc1 as the compound, how does the RP-LC retention time read?
A: 873 s

Q: With Cc1ccn2cc(C(=O)N3CCN(c4ccccc4Cl)CC3)nc2c1 as the compound, how does the RP-LC retention time read?
A: 722 s

Q: With O=C(Nc1ccc(-c2nnc3n2CCCC3)cc1)c1ccn[nH]1 as the compound, how does the RP-LC retention time read?
A: 595 s

Q: With CC1CCN(S(=O)(=O)c2ccc(-c3nnc(C(=O)N4CCC5(CC4)OCCO5)o3)cc2)CC1 as the compound, how does the RP-LC retention time read?
A: 952 s

Q: Which RP-LC retention time does the source give for O=C(Nc1ccc(CC(=O)N2CCOCC2)cc1)c1ccco1 here?
A: 594 s

Q: For Cc1ccc(NC(=O)N2CCC(n3cnc4ccc(F)cc4c3=O)CC2)c(C)c1, which RP-LC retention time is on record?
A: 790 s

Q: For O=C([C@@H]1C[C@H](F)CN1C(=O)c1ccc(Cl)cc1)N1CCCCC1, which RP-LC retention time is on record?
A: 724 s

Q: With CC1(C)CCCC2(C)C(OCCO)=CC(=O)C=C12 (centres undefined) as the compound, how does the RP-LC retention time read?
A: 794 s

Q: With COc1ccccc1CN1CCN(C(=O)C2CCc3nc(N4CCCCC4)ncc3C2)CC1 (centres undefined) as the compound, how does the RP-LC retention time read?
A: 623 s

Q: With O=C1CCC(CCNS(=O)(=O)c2ccc3c(c2)CCCC3)CCN1CC1CC1 (centres undefined) as the compound, how does the RP-LC retention time read?
A: 938 s

Q: For CCCNC(=O)C1CCN(c2ccc(SCC(=O)Nc3ccc(C)c(F)c3)nn2)CC1, which RP-LC retention time is on record?
A: 679 s

Q: Which RP-LC retention time does the source give for COc1ccc(OC)c(NC(=O)Cn2cccc2-c2nnc(-c3ccccc3)o2)c1 here?
A: 1020 s

Q: With CCOCCCNC(=O)Cn1c(-c2cccs2)cc2cc(F)ccc21 as the compound, how does the RP-LC retention time read?
A: 946 s

Q: With CCc1nn(C)c(=O)c2cc(S(=O)(=O)NCc3ccccc3F)cn12 as the compound, how does the RP-LC retention time read?
A: 860 s

Q: Which RP-LC retention time does the source give for COc1ccc(C(=O)n2c(SC)nc3ccccc32)cc1OC here?
A: 827 s

Q: Which RP-LC retention time does the source give for CCc1noc(NC(C)=O)c1-c1ccc(C)c(S(=O)(=O)Nc2ccc(C)cc2C)c1 here?
A: 897 s

Q: With O=C(NCCCN1CCCC1=O)C1CCN(c2cncnc2N2CCCCC2)CC1 as the compound, how does the RP-LC retention time read?
A: 582 s

Q: With NC(=O)C1CCN(C(=O)Cn2c(=O)nc(-c3ccccc3)c3cc(Cl)ccc32)CC1 as the compound, how does the RP-LC retention time read?
A: 639 s

Q: Which RP-LC retention time does the source give for COc1ccc(CC(=O)N2CC(c3nc(C)no3)C3(CCOCC3)C2)cc1 (centres undefined) here?
A: 712 s

Q: For O=C(CSc1ccc(-c2ccccn2)nn1)N1CCCCC1, which RP-LC retention time is on record?
A: 669 s

Q: Which RP-LC retention time does the source give for Cc1ccccc1OCc1ccc(-c2nc(C#N)c(NCCN(C)C)o2)o1 here?
A: 707 s

Q: For CCOC(=O)C1CCc2sc(NC(=O)CCn3cnc4ccccc4c3=O)nc21 (centres undefined), which RP-LC retention time is on record?
A: 690 s

Q: Which RP-LC retention time does the source give for Cc1ccc(CC(=O)NC2CCN(c3nnc4cccc(C)n34)CC2)cc1 here?
A: 680 s

Q: With CC(C)CN1CCn2cc(C(=O)NCc3ccc(F)c(Cl)c3)nc2C1 as the compound, how does the RP-LC retention time read?
A: 647 s

Q: Which RP-LC retention time does the source give for COC(=O)N1CCN(Cc2cccc(NC(=O)Nc3ccc(C)nc3)c2F)CC1 here?
A: 577 s

Q: With CCCNc1cc(N2CCCC(CCC(=O)N3CCN(C(=O)c4ccco4)CC3)C2)ncn1 (centres undefined) as the compound, how does the RP-LC retention time read?
A: 628 s

Q: With CC(C)(C)NS(=O)(=O)c1cc(-c2nnc(-c3ccccc3)o2)ccc1F as the compound, how does the RP-LC retention time read?
A: 985 s

Q: With O=C(Cn1c(=O)cc(C(=O)N2CCCCC2)c2ccccc21)NC1CCCC1 as the compound, how does the RP-LC retention time read?
A: 697 s

Q: For O=C(CSc1ccc(F)cc1)Nc1cccc2ccc(-n3ccnc3)nc12, which RP-LC retention time is on record?
A: 659 s

Q: Which RP-LC retention time does the source give for COc1cccc(S(=O)(=O)Nc2ccc(C(=O)Nc3ccncc3)cc2)c1 here?
A: 578 s

Q: With Cc1nn(-c2ccccc2)c(C)c1S(=O)(=O)N1CCC(C(=O)NCCc2cccs2)CC1 as the compound, how does the RP-LC retention time read?
A: 881 s

Q: Which RP-LC retention time does the source give for CCOc1ccccc1NC(=O)Cn1cnc2nc(N3CCCC(C(=O)NC)C3)sc2c1=O (centres undefined) here?
A: 667 s

Q: For CCCCn1cc(S(=O)(=O)NCc2cccc(C(F)(F)F)c2)c2cccnc21, which RP-LC retention time is on record?
A: 1050 s

Q: With O=C(NCc1ccc2c(c1)OCO2)c1c(O)c2cccnc2n(Cc2ccccc2)c1=O as the compound, how does the RP-LC retention time read?
A: 1290 s

Q: For O=C(CN1CCc2[nH]c3c(Cl)cccc3c(=O)c2C1)NCc1ccccc1, which RP-LC retention time is on record?
A: 598 s

Q: For CC(C)c1nccn1C1CN(C(=O)CCCc2c[nH]c3ccccc23)C1, which RP-LC retention time is on record?
A: 631 s

Q: Which RP-LC retention time does the source give for O=C(NCc1csc(-c2cccs2)n1)C1CCN(C(=O)c2cccc(Cl)c2)CC1 here?
A: 802 s
